{"source": "patent US10557129B2", "about": "“Peptides derived from human PCSK9 catalytic domain and uses thereof for promoting LDL-R activity” (Pronasci Inc., priority 2015, dated 2020)", "key": {"LDL-R [1]": {"molecular_target": "T1, LDL-R (Homo sapiens, UniProt P01130)", "T1 construct": "western blot analyses for endogenous LDL-R; endogenous in cells; host or cells: HepG2", "T1 sequence (P01130 22-860)": "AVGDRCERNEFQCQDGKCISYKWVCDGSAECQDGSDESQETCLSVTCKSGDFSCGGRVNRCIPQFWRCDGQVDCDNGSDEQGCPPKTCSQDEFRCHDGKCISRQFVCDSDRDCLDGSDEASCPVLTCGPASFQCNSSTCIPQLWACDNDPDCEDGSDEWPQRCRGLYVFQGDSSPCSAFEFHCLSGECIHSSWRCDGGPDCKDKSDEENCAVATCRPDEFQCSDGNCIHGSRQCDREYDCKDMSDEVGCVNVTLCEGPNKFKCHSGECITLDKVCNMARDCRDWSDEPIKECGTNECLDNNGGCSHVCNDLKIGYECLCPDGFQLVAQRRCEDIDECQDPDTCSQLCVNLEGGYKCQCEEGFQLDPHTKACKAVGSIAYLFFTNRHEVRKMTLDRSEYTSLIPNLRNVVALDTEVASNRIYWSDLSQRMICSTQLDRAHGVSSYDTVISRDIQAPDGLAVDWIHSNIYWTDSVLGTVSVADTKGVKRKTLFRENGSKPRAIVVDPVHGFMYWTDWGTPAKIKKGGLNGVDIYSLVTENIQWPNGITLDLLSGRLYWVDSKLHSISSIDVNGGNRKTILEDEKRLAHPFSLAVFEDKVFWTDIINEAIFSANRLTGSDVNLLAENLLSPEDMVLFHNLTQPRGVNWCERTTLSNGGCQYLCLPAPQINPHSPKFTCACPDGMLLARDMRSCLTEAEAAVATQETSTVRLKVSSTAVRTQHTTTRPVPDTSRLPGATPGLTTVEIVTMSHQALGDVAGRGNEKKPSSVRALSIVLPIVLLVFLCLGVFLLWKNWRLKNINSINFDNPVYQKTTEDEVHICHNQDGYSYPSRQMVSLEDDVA", "assay": "LDL-R level in HepG2 cells by western blot of whole cell lysates", "format": "cell-based", "protocol": "(§1) FIG. 13 illustrates (A) Western blot analyses showing the quantitation of LDL-R and PCSK9 levels under various conditions in HepG2 cells. These are western blot figures showing the effect of externally added FI-EGF-A peptide on exogenous levels of LDL-R and PCSK9 in growing HepG2 cells. The cells were harvested after 24 h and whole cell lysates were used for analysis of LDL-R, PCSK9 and actin levels both for control sample (DMSO) and FI-EGF-A done in duplicates. Actin was used as a house keeping control protein for quantitation purpose. (B): Rescue effect of FI-EGF-A peptide added in increasing concentration levels on LDL-R in growing HuH7 cells in the presence of added rec-PCSK9 protein. Rec-PCSK9 was incubated with various amounts of FI-EGF-A for 3 h at room temp and then applied to cells growing in 2 mL media to the concentrations as indicated in the figure. The cells were harvested 7 h later.\n(§2) FIG. 14 illustrates Western blots showing PCSK9 and LDL-R levels in the presence of various PCSK9 catalytic peptides in HepG2 cell. […]\nThe number passages of cell lines used were 6-8 times until they are at least 80% confluent as determined by microscope. […] All culture samples including whole cell lysate (WCL) were analysed for their protein contents using Pierce BCA (Bicinchoninic acid) reagent method or Bradford assay (Bio-Rad #500-0205) as described later.\n(§3) In general 20 μg of WCLs derived from various peptide treated HepG2 cell experiments was resolved by conventional 12% SDS-PAGE (Laemmli, 1970 #2). Resolved samples were then transferred to polyvinylidene fluoride (Bio-Rad #162-0177) and probed for LDL-R (R&D Systems #AF2148), hPCSK9 (Circulex #CY-M1033), Transferrin Recepter (TR) (Invitrogen #13-6800), αβ-actin-HRP (Horse Radish Peroxidase) (abcam #ab49900) and αFLAG-HRP (abcam #1238) primary antibodies and detected with α goat-HRP (abcam #ab6741) or a mouse-HRP (Bio-Rad #172-1011) secondary antibodies and visualized on a Bio-Rad versa dock imaging system using Clarity ECL Western Substrate (Bio-Rad #170-5060). […]"}, "LDL-R [2]": {"system": "LDL-R", "assay": "Rescue of LDL-R level in cells after addition of rec-PCSK9 protein (HuH7)", "format": "cell-based, human", "protocol": "as §1, with “Rec-PCSK9 was incubated with various amounts of FI-EGF-A for 3 h at room temp and then applied to cells growing in 2 mL media to the concentrations as indicated in the figure. The cells were harvested 7 h later.” left out\nas §3"}, "[3]": {"assay": "Model fluorescence quenching of FI-Bio-Ahx-Lys-Methyl ester (IIId) by biotin-binding proteins", "conditions": "for maximal quenching of fluorescence intensity of (IIId): data not shown; for quenching of fluorescence intensity of (IIId): 8:1 molar ratio protein:(IIId), FIGS. 7A, 7B", "protocol": "FIG. 7A illustrates fluorescence scan spectroscopy of FI-Bio-Ahx-Lys-Methyl ester (IIId) in presence of avidin.\nFIG. 7B illustrates fluorescence scan spectroscopy of FI-Bio-Ahx-Lys-Methyl ester (IIId) in presence of insulin as control peptide. […] For each experiment 5 μl of 0.5 mM (IIId) peptide in water was used.\nPreviously a number of studies reported that the interaction between two ligands one of which is fluorescence labeled can be followed by studying fluorescence intensity. In general the fluorescence intensity is suppressed with or without shift of emission peak position when there is a strong interaction between the two ligands. Greater the suppression or quenching of fluorescence intensity, greater is the strength of binding. In order to further confirm the above notion, a study was carried out by using a fixed concentration of fluorescent biotinylated peptide (IIId) and increasing doses of avidin protein. […] These avidin analogs with varying binding affinity towards biotin have been developed and made available through commercial organizations [Polyscience Inc., Technical Data Sheet Report-779]. […] This study confirms that fluorescence quenching is an indicator of binding between two ligands one of which is fluorescently labeled."}, "[4]": {"conditions": "Molecular Probes handbook; read-out: Kd with biotin; cited from earlier work"}, "LDL-R [5]": {"molecular_target": "T1, LDL-R", "conditions": "added exogenously to growing HepG2 cells; cited from earlier work"}, "[6]": {"molecular_target": "T2, recombinant hPCSK9 wild type (Homo sapiens, UniProt Q8NBP7)", "T2 construct": "complex formation between 60 kDa rec-hPCSK9 mature form with 5 kDa FI-EGF-A; made in house", "T2 sequence (Q8NBP7 153-692)": "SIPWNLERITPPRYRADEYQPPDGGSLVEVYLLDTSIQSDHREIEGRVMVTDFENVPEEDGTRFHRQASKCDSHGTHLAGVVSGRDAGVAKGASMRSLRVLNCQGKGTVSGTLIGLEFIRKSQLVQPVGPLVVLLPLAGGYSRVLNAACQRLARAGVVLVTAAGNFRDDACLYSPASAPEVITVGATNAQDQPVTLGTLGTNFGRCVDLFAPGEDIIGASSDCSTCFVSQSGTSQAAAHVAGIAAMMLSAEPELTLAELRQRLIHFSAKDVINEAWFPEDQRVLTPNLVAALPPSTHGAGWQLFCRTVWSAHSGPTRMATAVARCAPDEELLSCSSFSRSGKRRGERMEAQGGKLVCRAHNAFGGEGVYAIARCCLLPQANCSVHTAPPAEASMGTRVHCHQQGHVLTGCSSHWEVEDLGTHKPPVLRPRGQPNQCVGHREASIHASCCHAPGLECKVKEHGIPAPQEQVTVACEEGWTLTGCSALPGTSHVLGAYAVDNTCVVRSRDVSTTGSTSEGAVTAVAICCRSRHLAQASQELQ", "T2 sequence (Q8NBP7 31-152 partner limits assumed)": "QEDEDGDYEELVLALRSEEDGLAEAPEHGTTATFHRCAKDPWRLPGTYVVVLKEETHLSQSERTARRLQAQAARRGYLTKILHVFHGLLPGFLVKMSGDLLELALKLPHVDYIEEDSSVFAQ", "assay": "SDS-PAGE fluorescence / western blot binding of FI-EGF-A to recombinant FLAG-hPCSK9", "conditions": "5 μg FI-EGF-A + 1 μg rec-hPCSK9 WT, 2 h room temperature; fluorescent band at ~65 kDa; FIG. 12", "protocol": "FIG. 12 illustrates SDS-Gel electrophoresis of FI-EGF-A peptide in presence and absence of recombinant hPCSK9 protein. 5 μg of FI-EGF-A (Ib) was incubated with 1 μg rec-hPCSK9 wild type (WT) for 2 h at room temperature. The samples were resolved in 10% SDS PAGE. Left: Fluorescence detection; Right: Western blot using anti-FLAG as primary antibody. There is a fluorescence positive band around 65 kDa (a mobility shift by ˜5 kDa) shown by thick arrow indicating complex formation between 60 kDa rec-hPCSK9 mature form with 5 kDa FI-EGF-A (Ib) (Left panel). […] It is also noticed that after incubation with FI-EGF-A peptide, the 74 kDa PCSK9 protein is not recognized by anti-FLAG antibody while the 60 kDa hPCSK9 protein is still recognized but with reduced potency. […]\nBinding assays of various PCSK9 peptides were carried out by incubating 15 μg of each peptide (˜0.008 mM) with 20 μg of FL-EGF-A in a final volume of 20 μl of 25 mM HEPES (pH 7.4), 150 mM NaCl, 2 mM CaCl2 for 2 h at 37° C. Similar study was also performed using recPCSK9 wild type as well as D/Y variants against FI-EGF-A. Each sample along with the control without any added peptide was assessed for any binding between FI-EGF-A and peptide using fluorescence study, Mass spectrometry and Native gel studies […]"}, "PCSK9": {"system": "PCSK9", "assay": "PCSK9 level in HepG2 cells by western blot of whole cell lysates", "format": "cell-based, human", "conditions": "HepG2, 12 μg/ml, 24 h; FIG. 13A", "protocol": "as §1, §2\nThe number passages of cell lines used were 6-8 times until they are at least 80% confluent as determined by microscope. […] All culture samples including whole cell lysate (WCL) were analysed for their protein contents using Pierce BCA (Bicinchoninic acid) reagent method or Bradford assay (Bio-Rad #500-0205) as described later. […]"}}, "data": [{"substance": "GEDIIGASSDCSTCFVSQSG [CP3]", "values": [{"measurement": "LDL-R promoting activity", "setting": "LDL-R [1]; HepG2, 5.5 μM, FIG. 16", "value": "modest but significant LDL-R promoting activity"}, {"measurement": "rescue of LDL-R level following degradation by externally added PCSK9 protein", "setting": "LDL-R [2]; cell line not stated at the place (HepG2 or HuH7)", "value": "can rescue LDL-R level to a significant level"}]}, {"substance": "^365GEDIIGASSDASTCFVSQSG^384 [CP3-C/A]", "values": [{"measurement": "LDL-R promoting effect of acyclic mutant compared with CP3", "setting": "LDL-R [1]; HepG2, FIG. 16", "value": "completely lost"}]}, {"substance": "streptavidin: avidin analog with binding affinity towards biotin", "values": [{"measurement": "maximal quenching of fluorescence intensity of (IIId)", "setting": "[3]", "value": "~81.4", "unit": "%"}, {"measurement": "Kd", "setting": "[4]", "value": "~0.1", "unit": "nM"}]}, {"substance": "(aa181-200): peptide of catalytic segment of hPCSK9 (aa181-200) from a previous study (EVYLLDTSIQSDHREIEGRV; UniProt Q8NBP7 181-200, looked up, fragment)", "values": [{"measurement": "LDL-R promoting effect (previous study)", "setting": "LDL-R [5]", "value": "modest LDL-R promoting effect"}]}, {"substance": "h insulin: control peptide which does not bind with biotin", "values": [{"measurement": "quenching of fluorescence intensity of (IIId)", "setting": "[3]", "value": 30, "unit": "%"}]}, {"substance": "FI-EGF-A: 5-Carboxy Fluorescein N-terminally labeled 42 aa EGF-A domain peptide of hLDL-R (aa314-355)", "values": [{"measurement": "complex formation with recPCSK9", "setting": "[6]", "value": "forms a stable complex"}, {"measurement": "LDL-R level versus DMSO control", "setting": "LDL-R [1]; HepG2, 12 μg/ml, 24 h, standardized against actin, FIG. 13A", "value": "significant up regulation of the LDL-R"}, {"measurement": "PCSK9 level versus DMSO control", "setting": "PCSK9", "value": "marked up regulation of PCSK9"}, {"measurement": "restoration of LDL-R level after rec-PCSK9", "setting": "LDL-R [2]; HuH7 cells, rec-PCSK9 20 μg/ml, increasing amounts of FI-EGF-A, FIG. 13B", "value": "partly restored gradually"}]}, {"substance": "(aa368-390): peptide of catalytic segment of hPCSK9 (aa368-390) from a previous study (IIGASSDCSTCFVSQSGTSQAAA; UniProt Q8NBP7 368-390, looked up, fragment)", "values": [{"measurement": "LDL-R promoting effect (previous study)", "setting": "LDL-R [5]", "value": "modest LDL-R promoting effect"}]}, {"substance": "Nutravidin: avidin analog with binding affinity towards biotin", "values": [{"measurement": "maximal quenching of fluorescence intensity of (IIId)", "setting": "[3]", "value": 85, "unit": "%"}]}, {"substance": "avidin: biotin-binding protein", "values": [{"measurement": "quenching of fluorescence intensity of (IIId)", "setting": "[3]", "value": "~98", "unit": "%"}]}, {"substance": "Captavidin: avidin analog with binding affinity towards biotin", "values": [{"measurement": "maximal quenching of fluorescence intensity of (IIId)", "setting": "[3]", "value": 75.5, "unit": "%"}]}]}
